Experimental findings from US10300451B2, “Method for generating an affinity reagent library” (priority 2013, dated 2019) are described below.

Entries after “also recorded” stand apart in the source; their conditions may differ.

For one experiment, the target named is T1, αVβ6 (Homo sapiens, UniProt P06756+P18564).
T1 construct: A375puro endogenously express the RGD directed integrins α5β1, αVβ3, αVβ5 and αVβ8; expressed in transfected cells; host or cells: αVβ6-expressing cells; The method paragraph names no line
T1 sequence (P06756 31-889 limits assumed): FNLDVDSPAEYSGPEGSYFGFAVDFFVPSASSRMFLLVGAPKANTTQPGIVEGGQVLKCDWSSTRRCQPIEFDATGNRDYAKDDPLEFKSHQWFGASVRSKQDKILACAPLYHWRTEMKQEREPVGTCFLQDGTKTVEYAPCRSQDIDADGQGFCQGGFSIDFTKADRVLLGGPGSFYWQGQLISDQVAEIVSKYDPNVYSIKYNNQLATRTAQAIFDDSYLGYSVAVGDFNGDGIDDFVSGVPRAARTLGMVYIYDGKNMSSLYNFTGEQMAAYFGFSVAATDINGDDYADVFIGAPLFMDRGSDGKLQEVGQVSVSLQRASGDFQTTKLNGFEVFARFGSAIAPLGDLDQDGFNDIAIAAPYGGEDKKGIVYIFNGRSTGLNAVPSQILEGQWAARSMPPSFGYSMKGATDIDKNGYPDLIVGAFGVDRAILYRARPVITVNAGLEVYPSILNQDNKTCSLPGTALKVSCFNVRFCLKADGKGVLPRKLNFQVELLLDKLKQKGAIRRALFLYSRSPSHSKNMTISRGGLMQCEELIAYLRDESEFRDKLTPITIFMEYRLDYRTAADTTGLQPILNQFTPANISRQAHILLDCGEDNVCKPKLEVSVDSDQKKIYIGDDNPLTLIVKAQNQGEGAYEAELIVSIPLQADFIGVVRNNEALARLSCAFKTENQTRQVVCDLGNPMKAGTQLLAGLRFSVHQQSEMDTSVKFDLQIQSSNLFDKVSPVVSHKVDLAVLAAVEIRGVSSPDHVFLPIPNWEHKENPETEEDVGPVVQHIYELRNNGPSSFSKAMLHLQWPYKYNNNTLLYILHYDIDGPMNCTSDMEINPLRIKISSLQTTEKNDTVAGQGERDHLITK
T1 sequence (P06756 891-1048 limits assumed): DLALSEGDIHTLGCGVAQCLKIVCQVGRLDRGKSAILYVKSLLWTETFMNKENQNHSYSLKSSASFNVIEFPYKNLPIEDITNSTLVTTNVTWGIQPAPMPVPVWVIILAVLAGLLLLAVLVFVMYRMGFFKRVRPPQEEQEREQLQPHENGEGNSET
T1 sequence (P18564 22-788): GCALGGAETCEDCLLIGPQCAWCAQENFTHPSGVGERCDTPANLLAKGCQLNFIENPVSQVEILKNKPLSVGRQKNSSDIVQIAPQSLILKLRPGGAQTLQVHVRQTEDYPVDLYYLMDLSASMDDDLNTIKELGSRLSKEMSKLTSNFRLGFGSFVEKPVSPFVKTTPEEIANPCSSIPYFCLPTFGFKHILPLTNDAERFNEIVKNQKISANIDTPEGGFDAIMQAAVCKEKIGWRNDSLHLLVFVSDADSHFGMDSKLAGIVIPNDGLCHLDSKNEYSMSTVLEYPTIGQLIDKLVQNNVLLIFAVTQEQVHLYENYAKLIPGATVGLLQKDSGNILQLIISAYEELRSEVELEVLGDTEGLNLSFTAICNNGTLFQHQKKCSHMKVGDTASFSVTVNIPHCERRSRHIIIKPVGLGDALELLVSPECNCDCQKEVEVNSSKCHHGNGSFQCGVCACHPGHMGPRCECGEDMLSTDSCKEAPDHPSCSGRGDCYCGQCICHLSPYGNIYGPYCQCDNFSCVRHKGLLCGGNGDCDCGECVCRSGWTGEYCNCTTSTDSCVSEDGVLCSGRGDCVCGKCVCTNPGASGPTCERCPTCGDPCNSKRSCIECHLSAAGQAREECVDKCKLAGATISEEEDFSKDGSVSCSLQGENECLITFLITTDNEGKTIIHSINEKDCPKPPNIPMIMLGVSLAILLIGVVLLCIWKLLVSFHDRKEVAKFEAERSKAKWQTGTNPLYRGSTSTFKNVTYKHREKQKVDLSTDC
Description: Inhibition of biotinylated-A20FMDV2 binding to αVβ6 expressing cells. Format: cell-based. As to conditions: scFv or peptide 0.1 and 1.0 μM; biotinylated A20FMDV2 10 nM.

A further experiment has as its system αVβ6-expressing cells. Put plainly: Internalisation assay (confocal microscopy). Format: cell-based, human. As to conditions: for intracellular localisation after incubation: 37° C. for 45 minutes, αVβ6-expressing cells; for cellular internalisation in αVβ6-expressing cells: 37° C., 0 and 45 minutes. Here is the method:
In 24-well culture plates, 2×10^4 cells (DX3puro, DX3β6 or VB6) were seeded onto 13 mm diameter glass coverslips and allowed to incubate overnight at 37° C. in growth medium. Cells were washed thwice in serum free medium (SFM) and then scFv (4 uM) or biotinylated-CDR3-peptide (100 nM) diluted in SFM added on ice for 10 mins. After two ice-cold washes and a further 10 mins on ice with mouse anti-biotin antibody (10 ug/ml) pre-warmed media containing 10% FCS was added to the cells and incubated at 37° C. At 10 min intervals between 0-60 mins, cells were fixed in 2% HCHO in PBS and permeabilised with 0.1% TritonX-100 (PBS) for 3 mins. scFv was detected with mouse anti c-myc (1:100 dilution, clone 9E10; 30 mins, ambient temperature) and followed by while peptides were detected by rabbit anti-biotin IgG (1:200). Both peptide and scFv detected with anti-mouse Alexa488 for 30′. Nuclei were counter-labelled with 4′,6-diamidino-2-phenylindole (DAPI), coverslips mounted with Mowiol and samples examined by confocal microscopy (Zeiss LSM510, Welwyn Garden City).

For experiment [1], the system named is αVβ6-dependent adhesion of carcinoma cells to immobilised fibronectin. Description: Picogreen adhesion assay on fibronectin. As to conditions: fibronectin 10 ug/ml. The experiment is classed as cell-based, human. The method, then:
All adhesion assays were performed in quadruplicate and repeated at least 2-3 times. In a 96-well plate format, test wells were coated with Fibronectin (10 ug/ml/PBS) and negative control wells were coated with 0.1% BSA (bovine serum albumin)/PBS. After incubation at 37° C. for 1 hour, plates were washed in PBS thwice and blocked with 0.1% BSA/PBS for 30 mins at 37° C. Following a PBS rinse, cells were seeded into the wells, the plate resting on ice to avoid dehydration and to ensure an initial uniform temperature for the experiment. Purified scFv or peptide was added (25 ul) to the wells at the desired concentrations, before adding 1.5×10^4 cells (25 ul) per well. In some experiments, cells (1.5×10^4) were pre-treated with β1 blocking antibody AIIB2 at 10 ug/ml before seeding into test wells. To determine percentage adhesion, standard curves were generated by plating 0-2.5×10^4 cells in separate wells. After incubating plates at 37° C. for 30′ plates were washed twice in 1 mM CaCl2/0.5 mM MgCl2/PBS and transferred into −80° C. for 15 mins. Adherent cells were quantified using a Picogreen kit (Invitrogen) and analysed on a fluorescence reader (FLUOstar Optima, BMG Labtech Ltd, Bucks, UK).

The target in the next experiment is T2, cellular αVβ6 (Homo sapiens, UniProt P06756+P18564).
T2 construct: A375puro endogenously express the RGD directed integrins α5β1, αVβ3, αVβ5 and αVβ8; expressed in transfected cells; host or cells: A375Pβ6 (αVβ6-positive), with A375Ppuro as the αVβ6-negative control
T2 sequence (P06756 31-889 limits assumed): as the sequence (P06756 31-889 limits assumed) above
T2 sequence (P06756 891-1048 limits assumed): as the sequence (P06756 891-1048 limits assumed) above
T2 sequence (P18564 22-788): as the sequence (P18564 22-788) above
Description: Screening for integrin specificity by flow cytometry (A375Pβ6 vs A375Ppuro cells). Format: cell-based. Here is the method:
Purified scFv were tested for specificity for αVβ6 by flow cytometry using the isogenic pairs of cell lines, […] and A375Ppuro, which express similar levels of four RGD-binding integrins (αVβ3, αVβ5, αVβ8, α5β1) but only […] express αVβ6. Briefly, cells were detached with trypsin/EDTA, rinsed twice in ice-cold wash buffer (0.1% BSA/DMEM/0.1% NaN3) and 2×10^5 cells re-suspended in 50 μl of wash buffer per sample. In between all incubation steps, all samples were washed twice with wash buffer unless otherwise stated. Cells were incubated on ice for 1 hr with 0.1 or 1 uM purified scFv of peptide, washed twice. For scFv, cells were then incubated for 1 hr on ice with mouse anti-Myc antibody (clone 9E10, Santa Cruz) at 1:100. After washing, bound antibody was detected with anti-mouse IgG-Alexaflour 488 (1:250 for 1 h; Molecular Probes), on ice. Bound VH-CDR3 derived peptide were detected by rabbit anti-biotin IgG (1:200), followed by anti-rabbit IgG-Alexafluor 488 (1:250; Molecular Probes). Cells were analysed using the FACSCalibur (Beckton Dickinson). Cell expression of αVβ6 integrin was detected with mouse monoclonal antibody (clone 10D5, 10 μg/ml; Millipore) and non-specific (control) binding with non-immune class matched IgG.

Regarding “EPRGDLRTLAAREKRNFNETLARLQEKGI (Peptide sequence comprising RGD motif followed by a C-terminal alpha-helix or 3(10)-helix) [D25p]”, in the experiment with αVβ6, the “inhibition of binding of A20FMDV2 peptide to cellular αvβ6” value is reported as “dose-dependent inhibition”. In the experiment with αVβ6-expressing cells, the “intracellular localisation after incubation” value is listed as “nuclear localisation was not seen”, the “cellular internalisation in αVβ6-expressing cells” value is listed as “Internalisation” and the “cellular internalisation in αVβ6-negative cells” value is listed as “No peptide internalization was observed”. Further, the “inhibition of αVβ6-dependent adhesion of carcinoma cells to immobilised fibronectin” value in experiment [1] was “inhibited; also recorded: significant concentration-dependent inhibition”. In addition, the “binding to αVβ6-expressing cells (flow cytometry)” value with cellular αVβ6 is on record as “αVβ6-specific binding”.

On to “QPRGDLRELAARSEAQLQEKGI (Peptide sequence comprising RGD motif followed by a C-terminal alpha-helix or 3(10)-helix) [D34p]”, for which the “inhibition of binding of A20FMDV2 peptide to cellular αvβ6” value with αVβ6 is reported as “dose-dependent inhibition”. Besides, in the experiment on αVβ6-expressing cells, the “intracellular localisation after incubation” value is listed as “nuclear localisation was not seen”, the “cellular internalisation in αVβ6-expressing cells” value is given as “Internalisation” and the “cellular internalisation in αVβ6-negative cells” value is listed as “No peptide internalization was observed”. In addition, the “inhibition of αVβ6-dependent adhesion of carcinoma cells to immobilised fibronectin” value in experiment [1] is listed as “inhibited; also recorded: significant concentration-dependent inhibition”. The “binding to αVβ6-expressing cells (flow cytometry)” value with cellular αVβ6 is recorded as “αVβ6-specific binding”.
